# Reference: US9550775B2, “Substituted triazolopyridines and methods of use thereof” (GENENTECH, INC., priority 2013, dated 2017)
# Target: human NaV1.7 (with β1 subunit) stably expressed in HEK-293 cells (Homo sapiens (Human), UniProt Q15858)
# Assay: Patch voltage clamp electrophysiology assay (EP), inactivated-state block
# Format: cell-based
# Conditions: membrane potential held at -60 mV; read-out: affinity for the inactivated state of NaV1.7
# Experimental: Patch voltage clamp electrophysiology allows for the direct measurement and quantification of block of voltage-gated sodium channels (NaV's), and allows the determination of the time- and voltage-dependence of block which has been interpreted as differential binding to the resting, open, and inactivated states of the sodium channel (Hille, B., Journal of General Physiology (1977), 69: 497-515).
# Currents were recorded at 40 kHz sampling frequency, filtered at […], and stored using a Digidata-1322A analogue/digital interface with the pClamp software (Axon Instruments). Series resistance compensation was applied (60-80%). […] All statistics in this study are given as mean±SD.
# The membrane potential was maintained at a voltage where inactivation of the channel is complete (which was −60 mV for both NaV1.7 and NaV1.5). The voltage is then stepped back to a very negative (Vhold=[…]) voltage for 20 ms and then a test pulse is applied to quantify the compound block. The 20 ms brief repolarization was long enough for compound-free channels to completely recover from fast inactivation, but the compound-bound channels recovered more slowly such that negligible recovery could occur during this interval. The percent decrease in sodium current following wash-on of compound was taken as the percent block of sodium channels.
# Sequence of human NaV1.7 (with β1 subunit) stably expressed in HEK-293 cells (Q15858 other isoform, or with tags, fused parts or gaps): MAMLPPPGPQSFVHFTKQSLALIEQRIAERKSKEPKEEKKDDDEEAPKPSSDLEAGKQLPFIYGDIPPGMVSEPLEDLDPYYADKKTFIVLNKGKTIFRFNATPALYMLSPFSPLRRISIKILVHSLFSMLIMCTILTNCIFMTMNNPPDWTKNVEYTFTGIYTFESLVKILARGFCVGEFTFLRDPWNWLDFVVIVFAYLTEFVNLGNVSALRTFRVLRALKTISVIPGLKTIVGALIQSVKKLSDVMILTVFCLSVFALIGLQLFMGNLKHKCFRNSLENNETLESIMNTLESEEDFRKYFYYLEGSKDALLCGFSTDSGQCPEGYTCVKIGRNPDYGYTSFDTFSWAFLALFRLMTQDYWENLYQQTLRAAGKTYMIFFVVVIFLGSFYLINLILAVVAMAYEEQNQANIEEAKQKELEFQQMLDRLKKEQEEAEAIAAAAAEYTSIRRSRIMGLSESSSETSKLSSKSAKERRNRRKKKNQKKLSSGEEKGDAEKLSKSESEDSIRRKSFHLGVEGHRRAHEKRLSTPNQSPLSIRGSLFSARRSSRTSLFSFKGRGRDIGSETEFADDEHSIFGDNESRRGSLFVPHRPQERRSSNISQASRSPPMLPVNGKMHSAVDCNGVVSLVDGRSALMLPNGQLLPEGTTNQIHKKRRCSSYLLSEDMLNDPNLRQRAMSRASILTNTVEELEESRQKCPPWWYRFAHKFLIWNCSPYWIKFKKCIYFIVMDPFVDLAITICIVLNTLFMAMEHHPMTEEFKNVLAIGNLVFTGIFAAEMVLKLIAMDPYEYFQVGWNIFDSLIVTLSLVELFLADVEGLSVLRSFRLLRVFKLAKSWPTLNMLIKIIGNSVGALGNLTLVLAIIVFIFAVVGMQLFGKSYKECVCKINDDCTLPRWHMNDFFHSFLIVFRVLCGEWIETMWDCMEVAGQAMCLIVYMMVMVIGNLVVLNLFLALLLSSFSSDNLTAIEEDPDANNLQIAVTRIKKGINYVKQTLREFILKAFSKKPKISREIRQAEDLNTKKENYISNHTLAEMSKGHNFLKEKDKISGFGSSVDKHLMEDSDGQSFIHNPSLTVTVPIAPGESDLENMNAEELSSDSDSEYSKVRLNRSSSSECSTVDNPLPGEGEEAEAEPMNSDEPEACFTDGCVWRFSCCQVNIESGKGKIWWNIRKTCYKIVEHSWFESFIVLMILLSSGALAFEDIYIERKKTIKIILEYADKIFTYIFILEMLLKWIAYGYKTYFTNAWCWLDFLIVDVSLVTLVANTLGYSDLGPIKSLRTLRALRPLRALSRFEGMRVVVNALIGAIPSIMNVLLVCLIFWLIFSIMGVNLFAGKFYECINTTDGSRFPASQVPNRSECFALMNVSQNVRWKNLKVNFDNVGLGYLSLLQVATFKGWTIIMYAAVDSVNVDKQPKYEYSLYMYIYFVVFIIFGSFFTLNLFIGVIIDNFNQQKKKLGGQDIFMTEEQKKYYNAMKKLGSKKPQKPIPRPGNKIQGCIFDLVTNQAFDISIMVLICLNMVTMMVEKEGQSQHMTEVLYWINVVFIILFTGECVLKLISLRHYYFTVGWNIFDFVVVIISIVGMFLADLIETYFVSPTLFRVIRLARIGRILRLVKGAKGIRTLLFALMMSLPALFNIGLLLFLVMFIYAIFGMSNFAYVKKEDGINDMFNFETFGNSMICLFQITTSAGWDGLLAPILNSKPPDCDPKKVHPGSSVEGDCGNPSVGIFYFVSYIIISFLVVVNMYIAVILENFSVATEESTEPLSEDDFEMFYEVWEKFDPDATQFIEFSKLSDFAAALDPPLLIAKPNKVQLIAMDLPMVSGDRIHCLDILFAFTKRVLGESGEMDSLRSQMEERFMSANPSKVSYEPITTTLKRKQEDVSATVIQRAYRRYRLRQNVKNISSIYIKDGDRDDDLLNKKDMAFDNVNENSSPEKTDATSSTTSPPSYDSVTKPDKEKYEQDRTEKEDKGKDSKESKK
# Sequence of human NaV1.7 (with β1 subunit) stably expressed in HEK-293 cells (Q07699 19-218 partner): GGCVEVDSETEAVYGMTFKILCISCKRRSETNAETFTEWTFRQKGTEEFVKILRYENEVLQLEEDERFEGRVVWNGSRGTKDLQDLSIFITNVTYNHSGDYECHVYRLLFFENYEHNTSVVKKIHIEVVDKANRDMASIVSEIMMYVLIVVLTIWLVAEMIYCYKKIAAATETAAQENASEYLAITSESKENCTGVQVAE
row,IC50 [nM],SMILES
1,2.6,"CS(=O)(=O)Nc1nnc2cc(COc3ccc(Cl)c(Cl)c3)c(Br)cn12 [Example 55, N-(6-bromo-7-((3,4-dichlorophenoxy)methyl)-[1,2,4]-triazolo[4,3-a]pyridin-3-yl)-methanesulfonamide]"

# Target: hNav1.7 (Homo sapiens (Human), UniProt Q15858)
# Assay: Tritiated sulfonamide competitive binding to membranes from cells expressing hNav1.7 and the β1 subunit;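 further: displacement of the tritiated ligand from recombinant cell membranes, read by liquid scintillation counting of filter-bound radioactivity, nonspecific binding defined with 1 µM unlabelled compound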
# Conditions: 100 pM [3H]compound, 18 h, room temperature; inactivated state of NaV1.7 membrane binding; read-out: NaV1.7 Ligand Binding Assay (IC50)
# Sequence of hNav1.7 (Q15858 other isoform, or with tags, fused parts or gaps): as the sequence (Q15858 other isoform, or with tags, fused parts or gaps) above
# Sequence of hNav1.7 (Q07699 19-218 partner): as the sequence (Q07699 19-218 partner) above
row,SMILES,IC50 [nM]
1,"CS(=O)(=O)Nc1nnc2cc(COc3ccc(Cl)c(Cl)c3)c(Br)cn12 [Example 55, N-(6-bromo-7-((3,4-dichlorophenoxy)methyl)-[1,2,4]-triazolo[4,3-a]pyridin-3-yl)-methanesulfonamide]",2.6
2,"CC12CC3(C)CC(C)(C1)CC(COc1cc4nnc(NS(C)(=O)=O)n4cc1C1CC1)(C2)C3 [Example 122, N-(6-cyclopropyl-7-((3,5,7-trimethyladamantan-1-yl)methoxy)-[1,2,4]triazolo[4,3-a]pyridin-3-yl)methanesulfonamide]",2
3,"CS(=O)(=O)Nc1nnc2cc(OC[C@@H]3C[C@H]4CC[C@@H](C3)N4C(c3ccccc3)c3ccccc3)c(C3CC3)cn12 [Example 123, N-(7-(((1R,3S,5S)-8-benzhydryl-8-azabicyclo[3.2.1]octan-3-yl)methoxy)-6-cyclopropyl-[1,2,4]triazolo[4,3-a]pyridin-3-yl)methanesulfonamide]",17
4,"CCc1cn2c(NS(=O)(=O)N3CCC3)nnc2cc1OCC12CC3CC(CC(C3)C1)C2 [Example 126, N-(7-(adamantan-1-ylmethoxy)-6-ethyl-[1,2,4]triazolo[4,3-a]pyridin-3-yl)azetidine-1-sulfonamide]",31
5,"O=S(=O)(Nc1nnc2cc(OCC34CC5CC(CC(C5)C3)C4)c(C3CC3)cn12)N1CCC1 [Example 127, N-(7-(adamantan-1-ylmethoxy)-6-cyclopropyl-[1,2,4]triazolo[4,3-a]pyridin-3-yl)azetidine-1-sulfonamide]",9

# Continued by falling IC50, values first:
row,IC50 [nM],SMILES
1,320,"O=S(=O)(Nc1nnc2cc(CN3CCC(Oc4cc(Cl)cc(Cl)c4)CC3)c(C3CC3)cn12)C1CC1 [Example 124, N-(6-cyclopropyl-7-((4-(3,5-dichlorophenoxy)piperidin-1-yl)methyl)-[1,2,4]triazolo[4,3-a]pyridin-3-yl)cyclopropanesulfonamide]"
2,45,"C=Cc1cn2c(NS(C)(=O)=O)nnc2cc1OCC12CC3CC(CC(C3)C1)C2 [Example 128, N-(7-(adamantan-1-ylmethoxy)-6-vinyl-[1,2,4]triazolo[4,3-a]-pyridin-3-yl)methanesulfonamide]"
3,23,"C[C@H](c1cc(Cl)cc(Cl)c1)N1CCC(COc2cc3nnc(NS(C)(=O)=O)n3cc2C2CC2)CC1 [Example 119, (R)—N-(6-cyclopropyl-7-((1-(1-(3,5-dichlorophenyl)ethyl)piperidin-4-yl)methoxy)-[1,2,4]triazolo[4,3-a]pyridin-3-yl)methanesulfonamide]"
4,12,C[C@@H](c1cc(Cl)cc(Cl)c1)N1CCC(COc2cc3nnc(NS(=O)(=O)C4CC4)n3cc2C2CC2)CC1 [Example 121]
